Assay results taken from paper PMC10175561, “Two single-point mutations in Ankyrin Repeat one drastically change the threshold temperature of TRPV1” (Nature Communications, 2023).

Molecular target: T1, axTRPV1 (Ambystoma mexicanum, UniProt A0A5K7X138)
T1 construct: gene TRPV1; full-length cDNA in pGEMHE, expressed in Xenopus oocytes; cloned in the authors' earlier work
T1 sequence (A0A5K7X138 1-858): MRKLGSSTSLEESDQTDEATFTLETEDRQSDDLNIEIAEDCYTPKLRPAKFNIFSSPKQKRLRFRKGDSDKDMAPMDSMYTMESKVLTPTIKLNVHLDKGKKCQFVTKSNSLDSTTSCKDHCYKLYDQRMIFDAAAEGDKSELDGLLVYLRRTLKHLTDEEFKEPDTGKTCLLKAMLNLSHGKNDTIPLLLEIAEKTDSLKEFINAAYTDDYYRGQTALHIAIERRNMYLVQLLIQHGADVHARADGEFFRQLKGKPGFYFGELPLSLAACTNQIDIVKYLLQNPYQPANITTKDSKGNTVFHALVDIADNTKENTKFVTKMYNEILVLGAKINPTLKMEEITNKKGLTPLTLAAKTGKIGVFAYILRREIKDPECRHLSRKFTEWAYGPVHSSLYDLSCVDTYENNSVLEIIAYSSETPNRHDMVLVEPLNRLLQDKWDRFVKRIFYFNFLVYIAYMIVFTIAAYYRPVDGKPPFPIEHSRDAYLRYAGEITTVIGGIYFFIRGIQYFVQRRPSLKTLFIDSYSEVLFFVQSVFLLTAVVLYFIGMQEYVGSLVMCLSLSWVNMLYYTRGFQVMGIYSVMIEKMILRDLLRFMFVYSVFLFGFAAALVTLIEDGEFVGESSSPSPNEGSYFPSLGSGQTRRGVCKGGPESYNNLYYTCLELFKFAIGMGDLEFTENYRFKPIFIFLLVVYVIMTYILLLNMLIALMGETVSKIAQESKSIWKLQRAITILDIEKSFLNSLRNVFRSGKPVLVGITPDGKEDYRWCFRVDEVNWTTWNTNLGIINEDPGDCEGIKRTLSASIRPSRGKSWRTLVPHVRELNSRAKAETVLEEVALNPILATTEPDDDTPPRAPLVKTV
Assay: two-electrode voltage clamp, Xenopus oocytes
Type: cell-based
Conditions: agonist, dose-dependent activation; current at -80 mV; bath pH 7.4

COc1cc(CNC(=O)CCCC/C=C/C(C)C)ccc1O [capsaicin]
two-electrode voltage clamp, Xenopus oocytes: Capsaicin and acid activated all TRPV1s in a dose-dependent manner
